Source: patent US7598244B2, “[1,2,4]triazolo[1,5,a]pyrimidin-2-ylurea derivative and use thereof” (Nippon Kayaku Kabushiki Kaisha, priority 2003, dated 2009)
Read-outs that look alike come from different tables or passages of the source.

Assays:
Type in all cases: cell-based
[1] = test system: MHC class I molecules of T1 cells (human lymphoma cell line 174×CEM.); test: Effect on expression of MHC class I from T1 cells (flow cytometry, MFI); conditions: 3 days culture
How it was run: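 EC20 is the compound level that lowers MHC class I MFI by 20% relative to compound-free cultures. Read-out was flow cytometry after FITC W6/32 staining.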

[2] = test system: human dendritic cells cultured with human allogenic T cells; test: Effect on the ability of human dendritic cells to induce the growth of allogenic T cells ([3H]-thymidine incorporation); conditions: dendritic cells treated 3 days with test compound and TNF-α, then 5 days with allogenic T cells, read-out: IC50 (inhibition of DNA synthesis of lymphocytes)
Description: Effect on the Ability of Human Dendritic Cells to Induce the Growth of Allogenic T Cells
Immature dendritic cells were cultured with a test compound and TNF-α for 3 days by the same method as that described in Test Example 2. The obtained dendritic cells (2.5×10^3 cells/50 μl/well) were cultured together with human allogenic T cells (2.0×10^5 cells/150 μl/well) in a 96-well flat bottom plate at 37° C. for 5 days in an incubator containing 5% carbon dioxide. Thereafter, [^3H]-thymidine (Amersham Pharmacia Biotech) was added thereto at an amount of 1 μCi/10 μl/well, 16 hours before completion of the culture. After completion of the culture, cells were captured on a glass filter using a cell harvester (Skatron Instrument) and then dried. Thereafter, Scintillator ACS-II (Amersham Pharmacia Biotech) was added thereto, and the radioactivity of [^3H]-thymidine incorporated into the cells were then measured using a liquid scintillation counter. The inhibition rate of the DNA synthesis of lymphocytes was calculated using the following formula (3). Thereafter, the concentration of a test compound necessary for inhibition of 50% (IC50 value) was obtained.
[formula] • Eexp: The amount of [^3H]-thymidine incorporated into cultured cells containing test compound • Cexp: The amount of [^3H]-thymidine incorporated into cultured cells containing no test compounds

[3] = test system: MHC class I molecules of human peripheral blood-derived dendritic cells; test: Effect on expression of MHC class I molecules from human peripheral blood-derived dendritic cells; conditions: dendritic cells matured with TNF-α, 3 days; read-out: EC50 (reduction of 50% of the number of cells wherein MHC class I molecules were highly expressed)
Text: Effect on Expression of MHC Class I Molecules from Human Peripheral Blood-Derived Dendritic Cells
Monocytes were isolated from human peripheral blood by the specific gravity centrifugation method. Thereafter, using mouse anti-human CD14 antibody-binding microbeads and a magnetic cell separation system (Miltenyi Biotec), CD14 positive cells were separated from the peripheral blood monocytes. The separated CD14 positive cells were suspended in an RPMI 1640 medium containing 10% FBS, and the suspension was then inoculated in a 6-well plate, resulting in a concentration of 1.0×10^6 cells/well. It was cultured at 37° C. for 20 minutes in an incubator containing 5% carbon dioxide. […] Thereafter, RPMI 1640 containing a 500 U/ml human recombinant […] (hereinafter referred to as GM-CSF; Anapure Bioscientific), 50 ng/ml human recombinant interleukin 4 (hereinafter referred to as IL-4; Pepro Tech), and 10% FBS, was added to the remaining suspension at a concentration of 2 ml/well. The obtained mixture was then cultured at 37° C. in an incubator containing 5% carbon dioxide. When adhesive CD14 positive cells are cultured in the presence of GM-CSF and IL-4, the CD14 positive cells were differentiated into non-adhesive immature dendritic cells. After the cells had been cultured for 7 days, non-adhesive cells were recovered to obtain immature dendritic cells. Using a 6-well plate, the immature dendritic cells (2.5×10^5 cells/well) were cultured in RPMI 1640 containing a 100 U/ml human recombinant tumor necrosis factor-α (hereinafter referred to as TNF-a; Pepro Tech), a test compound, and 10% FBS, at 37° C. for 3 days in an incubator containing 5% carbon dioxide. The dendritic cells became mature as a result of the presence of TNF-α, but in the present test, a test compound was allowed to simultaneously act on the cells. The mature dendritic cells were then stained with fluoroisothiocyanate-labeled mouse anti-human MHC class I monoclonal antibody (an antibody generated from the cell line W6/32 (ATCC No. CRL 1991)). The rate of the number of cells wherein MHC class I molecules were highly expressed to the total number of cells was measured by flow cytometry. The reduction rate of the number of cells wherein MHC class I molecules were highly expressed was calculated using the following formula (2), and the concentrations of test compounds necessary for reduction of 50% (EC50 values) were obtained.
[formula] • Eexp: (The number of cells, wherein MHC class I molecules are highly expressed, in cultured cells containing test compound)/(the total number of cells) • Cexp: (The number of cells, wherein MHC class I molecules are highly expressed, in cultured cells containing no test compounds)/(the total number of cells)

| Structure (SMILES) | EC20 (concentration necessary for suppressing 20% of the expression level of MHC class I molecules) [1] | IC50 ([2]; Homo sapiens) | EC50 [3] | IC50 [2] |
| --- | --- | --- | --- | --- |
| O=C(Nc1ccccc1)Nc1nc2nccc(-c3cccs3)n2n1 [Example 001, 1-phenyl-3-[(7-thiophen-2-yl)-[1,2,4]triazolo[1,5-a]pyrimidin-2-yl]urea] | 1100 nM | 1230 nM | 460 nM | – |
| CC(=O)c1cccc(NC(=O)Nc2nc3nccc(-c4cccs4)n3n2)c1 [Example 005] | – | – | – | 650 nM |
| O=C(Nc1nc2nccc(-c3cccs3)n2n1)NC1CCCCC1 [Example 007] | 180 nM | 970 nM | 660 nM | – |
| COc1ccc(-c2ccnc3nc(NC(=O)NC4CCCCC4)nn23)cc1 [Example 015] | 45 nM | 380 nM | 130 nM | – |
| COc1ccc(-c2ccnc3nc(NC(=O)NCc4ccccc4)nn23)cc1 [Example 018] | 52 nM | – | 290 nM | – |
| O=C(Nc1nc2nccc(-c3ccc(O)cc3)n2n1)NC1CCCCC1 [Example 024] | 240 nM | 820 nM | 160 nM | – |
| COc1ccc(-c2ccnc3nc(NC(=O)NC4CCCC4)nn23)cc1 [Example 027] | 67 nM | – | 220 nM | – |
| COc1ccc(-c2ccnc3nc(NC(=O)NC(C)C)nn23)cc1 [Example 030] | 400 nM | 1250 nM | 480 nM | – |
| COc1ccc(-c2ccnc3nc(NC(=O)N[C@@H](C)C(=O)OC(C)(C)C)nn23)cc1 [Example 049] | 230 nM | 1630 nM | 210 nM | – |
| COc1ccc(-c2ccnc3nc(NC(=O)N[C@H](C(=O)NCCN(C)C)C(C)C)nn23)cc1 [Example 057] | – | – | – | 2700 nM |
| COc1ccc(-c2ccnc3nc(NC(=O)NC4CCN(Cc5ccccc5)CC4)nn23)cc1 [Example 059] | 230 nM | – | 530 nM | – |
| COc1ccc(-c2ccnc3nc(NC(=O)NCCCN4CCOCC4)nn23)cc1 [Example 067] | 300 nM | – | 2220 nM | – |
| COc1ccc(-c2ccnc3nc(NC(=O)N[C@H](C(=O)N4CCN(C)CC4)C(C)C)nn23)cc1 [Example 069] | 410 nM | – | 2850 nM | – |
| COc1ccc(-c2ccnc3nc(NC(=O)NC(C(=O)NCC4CCCO4)C(C)C)nn23)cc1 (centres unmarked) [Example 071] | 530 nM | – | 670 nM | – |
| COc1ccc(-c2ccnc3nc(NC(=O)NCCC(=O)NCC4CCCO4)nn23)cc1 (centres unmarked) [Example 158] | 390 nM | – | – | 690 nM |
| COc1cccc([C@H](C)NC(=O)Nc2nc3nccc(-c4cc(OC)c(OC)c(OC)c4)n3n2)c1 [Example 308] | 760 nM | – | – | – |

| Structure (SMILES) | EC20 (concentration necessary for suppressing 20% of the expression level of MHC class I molecules) [1] | IC50 ([2]; Homo sapiens) | EC50 [3] | IC50 [2] |
| --- | --- | --- | --- | --- |
| CC(CCCC(C)(C)O)NC(=O)Nc1nc2nccc(-c3cccc(OCc4cccnc4)c3)n2n1 (centres unmarked) [Example 313, 1-(5-hydroxy-1,5-dimethylhexyl)-3-{7-[3-(pyridin-3-ylmethoxy)phenyl]-[1,2,4]triazolo[1,5-a]pyrimidin-2-yl}urea] | 290 nM | – | – | – |
| COCCCC(C)NC(=O)Nc1nc2nccc(-c3ccc(OC)cc3)n2n1 (centres unmarked) [Example 314] | 80 nM | – | – | – |
| COCCCC(C)NC(=O)Nc1nc2nccc(-c3cccs3)n2n1 (centres unmarked) [Example 315] | 270 nM | – | – | – |
| CC(CCC(C)(C)O)NC(=O)Nc1nc2nccc(-c3cccs3)n2n1 (centres unmarked) [Example 318] | 40 nM | – | – | – |
| COc1cccc([C@H](C)NC(=O)Nc2nc3nccc(-c4ccc(OCC5CCOCC5)cc4)n3n2)c1 [Example 322] | 20 nM | – | – | – |
| COc1ccc(-c2ccnc3nc(NC(=O)NC(C)CCC4(C)OCCO4)nn23)cc1 (centres unmarked) [Example 323] | 30 nM | – | – | – |
| COc1ccc(-c2ccnc3nc(NC(=O)NC(C)COCC4CCOCC4)nn23)cc1 (centres unmarked) [Example 325] | 70 nM | – | – | – |
| COc1ccc(-c2ccnc3nc(NC(=O)NC(C)CCC(C)=O)nn23)cc1 (centres unmarked) [Example 326] | 210 nM | – | – | – |
| CCOCCC(C)NC(=O)Nc1nc2nccc(-c3ccc4c(c3)OCO4)n2n1 (centres unmarked) [Example 327, 1-[7-(3,4-methylenedioxyphenyl)-[1,2,4]triazolo[1,5-a]pyrimidin-2-yl]-3-(3-ethoxy-1-methylpropyl)urea] | 150 nM | – | – | – |
| CCOCC[C@H](C)NC(=O)Nc1nc2nccc(-c3ccc(OCC4CCOCC4)cc3)n2n1 [Example 328] | 70 nM | – | – | – |
| CCOCC[C@H](C)NC(=O)Nc1nc2nccc(-c3ccc(O)cc3)n2n1 [Example 329] | 60 nM | – | – | – |
| CC(CCC(C)(C)O)NC(=O)Nc1nc2nccc(-c3ccc4c(c3)OCO4)n2n1 (centres unmarked) [Example 330] | 210 nM | – | – | – |
| CC(COCC1CCOCC1)NC(=O)Nc1nc2nccc(-c3cccs3)n2n1 (centres unmarked) [Example 331] | 150 nM | – | – | – |
| COCC[C@H](C)NC(=O)Nc1nc2nccc(-c3cccs3)n2n1 [Example 332] | 760 nM | – | – | – |
| CC(COCC1CCOCC1)NC(=O)Nc1nc2nccc(-c3ccc4c(c3)OCO4)n2n1 (centres unmarked) [Example 335] | 260 nM | – | – | – |
